Laboratory results from US20200131196A1 (Mount Tam Therapeutics, Inc., priority 2017, published 2020).

Key:
ST486 = assay: OncoPanel cell proliferation assay, ST486; format: cell-based, human
Experimental: (§1) Cells were grown in RPMI 1640, 10% FBS, 2 mM L-alanyl-L-glutamine, 1 mM Na pyruvate, or a special medium. Cells were seeded into 384-well plates and incubated in a humidified atmosphere of 5% CO2 at 37° C. Compounds were added the day following cell seeding. At the same time, a time zero untreated cell plate was generated. After a 3-day incubation period, cells were fixed and stained to allow fluorescence imaging of nuclei. Compounds (1 mM stock solutions) were serially diluted in half-log steps from the highest test concentration ([…]), and assayed over 10 concentrations with a maximum assay concentration of 0.1% DMSO. Automated fluorescence microscopy was carried out using a Molecular Devices ImageXpress Micro XL high-content imager, and images were collected with a 4× objective. 16-bit TIFF images were acquired and analyzed with MetaXpress 5.1.0.41 software.
(§2) Cell proliferation was measured by the fluorescence intensity of an incorporated nuclear dye. The output is referred to as the relative cell count, where the measured nuclear intensity is transformed to percent of control (POC) using the following formula: […]
(§3) Cellular response parameters were calculated using nonlinear regression to a sigmoidal single-site dose response model:
(§4) EC50 is the test compound concentration at the curve inflection point or half the effective response (parameter C of the fitted curve solution). GI50 is the concentration needed to reduce the observed growth by half (midway between the curve maximum and the time zero value). “Cell Count Activity Area” is an estimate of the integrated area above the curve (Barretina, et al. The Cancer Cell Line Encyclopedia enables predictive modelling of anticancer drug sensitivity. Nature 483: 603-607). […] In rare instances, values <0 or >10 may be observed. […] Curve-fitting, calculations, and report generation was performed using a custom data reduction engine and MathIQ based software (AIM).

A101D = assay: OncoPanel cell proliferation assay, A101D; format: cell-based, human
Experimental: as §1, §2, §3, §4

SNU-C2B = assay: OncoPanel cell proliferation assay, SNU-C2B; format: cell-based, human
Experimental: as §1, §2, §3, §4

T24 = assay: OncoPanel cell proliferation assay, T24; format: cell-based, human
Experimental: as §1, §2, §3, §4

SCaBER = assay: OncoPanel cell proliferation assay, SCaBER; format: cell-based, human
Experimental: as §1, §2, §3, §4

Hs 729 = assay: OncoPanel cell proliferation assay, Hs 729; format: cell-based, human
Experimental: as §1, §2, §3, §4

Hs 852.T = assay: OncoPanel cell proliferation assay, Hs 852.T; format: cell-based, human
Experimental: as §1, §2, §3, §4

OVCAR3 = assay: OncoPanel cell proliferation assay, OVCAR3
Experimental: Cells were seeded into 384-well plates and incubated in a humidified atmosphere of 5% CO2 at 37° C. Compounds were added the day following cell seeding. At the same time, a time zero untreated cell plate was generated. After a 3-day incubation period, cells were fixed and stained to allow fluorescence imaging of nuclei. Compounds (1 mM stock solutions) were serially diluted in half-log steps from the highest test concentration (1 micromol), and assayed over 10 concentrations with a maximum assay concentration of 0.1% DMSO. Automated fluorescence microscopy was carried out using a Molecular Devices ImageXpress Micro XL high-content imager, and images were collected with a 4× objective. 16-bit TIFF images were acquired and analyzed with MetaXpress 5.1.0.41 software.

MES-SA = assay: OncoPanel cell proliferation assay, MES-SA; format: cell-based, human
Experimental: as §1, §2, §3, §4

U-87 MG = assay: OncoPanel cell proliferation assay, U-87 MG; format: cell-based, human
Experimental: as §1, §2, §3, §4

SNU-5 = assay: OncoPanel cell proliferation assay, SNU-5; format: cell-based, human
Experimental: as §1, with “Cells” for “Cells were grown in RPMI 1640, 10% FBS, 2 mM L-alanyl-L-glutamine, 1 mM Na pyruvate, or a special medium. Cells”
as §2, §3
GI50 is the concentration needed to reduce the observed growth by half (midway between the curve maximum and the time zero value). […] In rare instances, values <0 or >10 may be observed. […] Curve-fitting, calculations, and report generation was performed using a custom data reduction engine and MathIQ based software (AIM).

A431 = assay: OncoPanel cell proliferation assay, A431; format: cell-based, human
Experimental: as §1, §2, §3, §4

[1] = Homo sapiens, read-out: Cell Count GI50
[2] = Homo sapiens, read-out: Cell Count IC50
[3] = Homo sapiens, read-out: Cell Count EC50

`CN[C@@H]1C[C@H]2O[C@@](C)([C@@H]1OC)n1c3ccccc3c3c4c(c5c6ccccc6n2c5c31)C(=O)NC4` [Staurosporine, reference compound] was tested, and the “Cell Count Activity Area” value (ST486) was 4.89, the GI50 (ST486; [1]) was 2.83 nM and the IC50 (ST486; [2]) was 4.61 nM. The “Cell Count Activity Area” value (A101D) was 4.56, the EC50 (A101D; [3]) was 7.02 nM and the GI50 (A101D; [1]) was 2.65 nM. For the same molecule, the “Cell Count Activity Area” value (SNU-C2B) was 3.80, the EC50 (SNU-C2B; [3]) was 15.8 nM and the GI50 (SNU-C2B; [1]) was 4.97 nM. The “Cell Count Activity Area” value (T24) was 5.96, the GI50 (T24; Homo sapiens, T-24, read-out: Cell Count GI50) was 0.829 nM and the “Cell Count Activity Area” value (SCaBER) was 6.03. For the same molecule, the GI50 (SCaBER; [1]) was 0.474 nM, the “Cell Count Activity Area” value (Hs 729) was 4.06 and the GI50 (Hs 729; [1]) was 0.898 nM. The IC50 (Hs 729; [2]) was 7.04 nM, the “Cell Count Activity Area” value (Hs 852.T) was 3.16 and the GI50 (Hs 852.T; [1]) was 1.35 nM. The GI50 (OVCAR3; Homo sapiens, OVCAR-3, read-out: Cell Count GI50) was 6.11 nM, the “Cell Count Activity Area” value (OVCAR3; OVCAR3) was 3.41 and the “Cell Count Activity Area” value (MES-SA) was 2.80. The GI50 (MES-SA; [1]) was 13 nM, the “Cell Count Activity Area” value (U-87 MG) was 3.25 and the GI50 (U-87 MG; [1]) was 0.836 nM. The “Cell Count Activity Area” value (SNU-5) was 2.58, the EC50 (SNU-5; [3]) was 6.44 nM and the GI50 (SNU-5; [1]) was 10.3 nM. For the same molecule, the “Cell Count Activity Area” value (A431) was 5.64, the GI50 (A431; Homo sapiens, A-431, read-out: Cell Count GI50) was 1.03 nM and the IC50 (A431; Homo sapiens, A-431, read-out: Cell Count IC50) was 1.19 nM.
